According to ChEMBL document CHEMBL1201862, “PubChem BioAssay data set” (2004):
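Results reflect a 48-hour exposure of cells in 96-well plates to compound at five concentrations. Abbreviation: GI50, concentration required for 50% inhibition of growth.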 Calls of active or inactive are those of the source. No stated cut-off is given here; in the data, active = GI50 up to about 1.1 µM and inactive = higher.

Assays:
Test in all cases: NCI anticancer screen, dose series, 48 h
[1] = system: HL-60
[2] = system: MOLT-4
[3] = system: SF-295
[4] = system: RXF 393
[5] = system: SNB-19
[6] = system: A549
[7] = system: UO-31
[8] = system: SF-539
[9] = system: HCT-116
[10] = system: OVCAR-4
[11] = system: SF-268
[12] = system: SN12C
[13] = system: SR
[14] = system: NCI-H226
[15] = system: MDA-MB-435
[16] = system: HT-29
[17] = system: SK-OV-3
[18] = system: OVCAR-5
[19] = system: UACC-257
[20] = system: MDA-N
[21] = system: DU-145
[22] = system: T47D
[23] = system: NCI-H460
[24] = system: EKVX
[25] = system: MCF7
[26] = system: ACHN
[27] = system: CCRF-CEM
[28] = system: UACC-62
[29] = system: SK-MEL-5
[30] = system: SNB-75
[31] = system: NCI-H522
[32] = system: COLO 205
[33] = system: CAKI-1
[34] = system: HOP-92
[35] = system: RPMI-8226
[36] = system: TK-10
[37] = system: 786-0
[38] = system: SK-MEL-2
[39] = system: K562
[40] = system: A498
[41] = system: NCI-H23
[42] = system: LOX IMVI
[43] = system: MDA-MB-231
[44] = system: SW-620
[45] = system: SK-MEL-28
[46] = system: M14
[47] = system: IGROV-1
[48] = system: Malme-3M
[49] = system: HCC 2998
[50] = system: U-251
[51] = system: KM12
[52] = system: OVCAR-8
[53] = system: PC-3
[54] = system: NCI/ADR-RES
[55] = system: OVCAR-3
[56] = system: BT-549
[57] = system: Hs-578T
[58] = system: HOP-62
[59] = system: HCT-15

O=C(O)c1ccc(C(=O)Nc2cccc3ccccc23)c(C(=O)O)c1
GI50 [1]: > 100 µM (inactive)
GI50 [2]: > 100 µM (inactive)
GI50 [3]: > 100 µM (inactive)
GI50 [4]: > 100 µM (inactive)
GI50 [5]: > 100 µM (inactive)
GI50 [6]: > 100 µM (inactive)
GI50 [7]: > 100 µM (inactive)
GI50 [8]: > 100 µM (inactive)
GI50 [9]: > 100 µM (inactive)
GI50 [10]: > 100 µM (inactive)
GI50 [11]: > 100 µM (inactive)
GI50 [12]: > 100 µM (inactive)
GI50 [13]: > 100 µM (inactive)
GI50 [14]: > 100 µM (inactive)
GI50 [15]: > 100 µM (inactive)
GI50 [16]: > 100 µM (inactive)
GI50 [17]: > 100 µM (inactive)
GI50 [18]: > 100 µM (inactive)
GI50 [19]: > 100 µM (inactive)
GI50 [20]: > 100 µM (inactive)
GI50 [21]: > 100 µM (inactive)
GI50 [22]: > 100 µM (inactive)
GI50 [23]: > 100 µM (inactive)
GI50 [24]: > 100 µM (inactive)
GI50 [25]: > 100 µM (inactive)
GI50 [26]: > 100 µM (inactive)
GI50 [27]: > 100 µM (inactive)
GI50 [28]: > 100 µM (inactive)
GI50 [29]: > 100 µM (inactive)
GI50 [30]: > 100 µM (inactive)
GI50 [31]: > 100 µM (inactive)
GI50 [32]: > 100 µM (inactive)
GI50 [33]: > 100 µM (inactive)
GI50 [34]: > 100 µM (inactive)
GI50 [35]: > 100 µM (inactive)
GI50 [36]: > 100 µM (inactive)
GI50 [37]: > 100 µM (inactive)
GI50 [38]: > 100 µM (inactive)
GI50 [39]: > 100 µM (inactive)
GI50 [40]: > 100 µM (inactive)
GI50 [41]: > 100 µM (inactive)
GI50 [42]: > 100 µM (inactive)
GI50 [43]: > 100 µM (inactive)
GI50 [44]: > 100 µM (inactive)
GI50 [45]: > 100 µM (inactive)
GI50 [46]: > 100 µM (inactive)
GI50 [47]: > 100 µM (inactive)
GI50 [48]: > 100 µM (inactive)
GI50 [49]: > 100 µM (inactive)
GI50 [50]: > 100 µM (inactive)
GI50 [51]: > 100 µM (inactive)
GI50 [52]: > 100 µM (inactive)
GI50 [53]: > 100 µM (inactive)
GI50 [54]: > 100 µM (inactive)
GI50 [55]: > 100 µM (inactive)
GI50 [56]: > 100 µM (inactive)
GI50 [57]: > 100 µM (inactive)
GI50 [58]: > 100 µM (inactive)
GI50 [59]: > 100 µM

O=[N+]([O-])C(C(Cl)=C(Cl)Cl)=C(n1nnc2ccccc21)n1nnc2ccccc21
GI50 [1]: 3.94 µM (inactive)
GI50 [2]: 9.33 µM (inactive)
GI50 [3]: > 56 µM (inactive)
GI50 [4]: 20.2 µM (inactive)
GI50 [5]: > 86.7 µM (inactive)
GI50 [6]: 48.5 µM (inactive)
GI50 [7]: 25.6 µM (inactive)
GI50 [8]: 28.2 µM (inactive)
GI50 [9]: 20.5 µM (inactive)
GI50 [10]: 36.9 µM (inactive)
GI50 [11]: 30.1 µM (inactive)
GI50 [12]: 22.6 µM (inactive)
GI50 [13]: 8.45 µM (inactive)
GI50 [14]: > 58.7 µM (inactive)
GI50 [15]: 27.9 µM (inactive)
GI50 [16]: 26 µM (inactive)
GI50 [17]: > 43.6 µM (inactive)
GI50 [18]: 47.1 µM (inactive)
GI50 [19]: 48.9 µM (inactive)
GI50 [20]: 23.9 µM (inactive)
GI50 [21]: > 86.3 µM (inactive)
GI50 [22]: 40.7 µM (inactive)
GI50 [23]: 51.6 µM (inactive)
GI50 [24]: > 59.3 µM (inactive)
GI50 [25]: 28.1 µM (inactive)
GI50 [26]: 25.6 µM (inactive)
GI50 [27]: 18.6 µM (inactive)
GI50 [28]: 16.1 µM (inactive)
GI50 [29]: 34.2 µM (inactive)
GI50 [30]: > 44.3 µM (inactive)
GI50 [31]: 18.5 µM (inactive)
GI50 [32]: 19.5 µM (inactive)
GI50 [33]: 30.3 µM (inactive)
GI50 [34]: 43.5 µM (inactive)
GI50 [35]: 24.8 µM (inactive)
GI50 [36]: 46.1 µM (inactive)
GI50 [37]: 13.2 µM (inactive)
GI50 [38]: 42 µM (inactive)
GI50 [39]: 11.5 µM (inactive)
GI50 [40]: > 57.9 µM (inactive)
GI50 [41]: 37.6 µM (inactive)
GI50 [42]: 24.4 µM (inactive)
GI50 [43]: 20.4 µM (inactive)
GI50 [44]: 5.21 µM (inactive)
GI50 [45]: 23.5 µM (inactive)
GI50 [46]: 30.7 µM (inactive)
GI50 [47]: 36.6 µM (inactive)
GI50 [48]: 21.7 µM (inactive)
GI50 [49]: 49.1 µM (inactive)
GI50 [50]: 36.1 µM (inactive)
GI50 [51]: > 58.5 µM (inactive)
GI50 [52]: 21.5 µM (inactive)
GI50 [53]: 37.1 µM (inactive)
GI50 [54]: 32.4 µM (inactive)
GI50 [55]: 24.9 µM (inactive)
GI50 [56]: > 51.1 µM (inactive)
GI50 [57]: 35.8 µM (inactive)
GI50 [58]: 35.7 µM (inactive)
GI50 [59]: 25.9 µM

COc1ccc2nc3ccc(OC)cc3c(SCCCl)c2c1
GI50 [1]: 3.28 µM (inactive)
GI50 [2]: 2.79 µM (inactive)
GI50 [3]: 26.2 µM (inactive)
GI50 [4]: > 20.6 µM (inactive)
GI50 [5]: 32.4 µM (inactive)
GI50 [6]: 39.2 µM (inactive)
GI50 [7]: 32 µM (inactive)
GI50 [8]: 7.21 µM (inactive)
GI50 [9]: 6.22 µM (inactive)
GI50 [10]: 12.7 µM (inactive)
GI50 [11]: 12 µM (inactive)
GI50 [12]: 12.2 µM (inactive)
GI50 [13]: 4.8 µM (inactive)
GI50 [14]: > 48.4 µM (inactive)
GI50 [15]: 9.95 µM (inactive)
GI50 [16]: 8.28 µM (inactive)
GI50 [17]: > 74 µM (inactive)
GI50 [18]: 24.8 µM (inactive)
GI50 [19]: > 46.1 µM (inactive)
GI50 [20]: > 50.6 µM (inactive)
GI50 [21]: 21 µM (inactive)
GI50 [22]: 15.2 µM (inactive)
GI50 [23]: 33.9 µM (inactive)
GI50 [24]: > 49.9 µM (inactive)
GI50 [25]: 2 µM (inactive)
GI50 [26]: 13.9 µM (inactive)
GI50 [27]: 2.75 µM (inactive)
GI50 [28]: 19.5 µM (inactive)
GI50 [29]: 8.87 µM (inactive)
GI50 [30]: 13.7 µM (inactive)
GI50 [31]: 3.03 µM (inactive)
GI50 [32]: > 39.1 µM (inactive)
GI50 [33]: 3.82 µM (inactive)
GI50 [34]: 21.6 µM (inactive)
GI50 [35]: 2.95 µM (inactive)
GI50 [36]: > 81.5 µM (inactive)
GI50 [37]: 6.24 µM (inactive)
GI50 [38]: 20.7 µM (inactive)
GI50 [39]: 9.66 µM (inactive)
GI50 [40]: 31.1 µM (inactive)
GI50 [41]: 16 µM (inactive)
GI50 [42]: 5.98 µM (inactive)
GI50 [43]: 18.8 µM (inactive)
GI50 [44]: 12.6 µM (inactive)
GI50 [45]: 31.7 µM (inactive)
GI50 [46]: 12.3 µM (inactive)
GI50 [47]: 5.09 µM (inactive)
GI50 [48]: 9.57 µM (inactive)
GI50 [49]: > 45.8 µM (inactive)
GI50 [50]: 18 µM (inactive)
GI50 [51]: 17.5 µM (inactive)
GI50 [52]: 8.57 µM (inactive)
GI50 [53]: 22.6 µM (inactive)
GI50 [54]: 16.3 µM (inactive)
GI50 [55]: 18.2 µM (inactive)
GI50 [56]: 51.4 µM (inactive)
GI50 [57]: 5.07 µM (inactive)
GI50 [58]: 18.1 µM (inactive)
GI50 [59]: 12.7 µM
